The source made the active and inactive calls. The rule behind the calls is not given here.
How the values were obtained:
[1] = Neurotoxicity in ip dosed CF-1 albino mouse after 4 hrs by rotarod test; assay type: toxicity, organism-based; conditions: CF-1, mouse, in vivo
Vibrio harveyi [2] = test: Antimutagenic activity in Vibrio harveyi BB7XM assessed as inhibition of 4-nitroquinoline-N-oxide-induced mutation; assay type: functional
Vibrio harveyi [3] = test: Antimutagenic activity in Vibrio harveyi BB7M assessed as inhibition of 4-nitroquinoline-N-oxide-induced mutation; assay type: functional
Vibrio harveyi [4] = test: Antimutagenic activity in Vibrio harveyi BB7X assessed as inhibition of 4-nitroquinoline-N-oxide-induced mutation; assay type: functional
Vibrio harveyi [5] = test: Antimutagenic activity in Vibrio harveyi BB7 assessed as inhibition of 4-nitroquinoline-N-oxide-induced mutation; assay type: functional
Vibrio harveyi [6] = test: Induction of mutagenecity in Vibrio harveyi BB7XM; assay type: organism-based; conditions: in vivo
Vibrio harveyi [7] = test: Induction of mutagenecity in Vibrio harveyi BB7M; assay type: organism-based; conditions: in vivo
Vibrio harveyi [8] = test: Induction of mutagenecity in Vibrio harveyi BB7X; assay type: organism-based; conditions: in vivo
Vibrio harveyi [9] = test: Induction of mutagenecity in Vibrio harveyi BB7; assay type: organism-based; conditions: in vivo
[10] = Neurotoxicity in ip dosed CF-1 albino mouse after 0.5 hrs by rotarod test; assay type: toxicity, organism-based; conditions: CF-1, mouse, in vivo
Mus musculus [11] = test: Anticonvulsant activity in ip dosed CF-1 albino mouse assessed as protection against maximal electroshock-induced seizures after 4 hrs; assay type: functional
Mus musculus [12] = test: Anticonvulsant activity in CF-1 albino mouse assessed as protection against maximal electroshock-induced seizures at 300 mg/kg, ip after 0.5 hrs; assay type: functional, organism-based; parameters: dose 300 mg/kg
Mus musculus [13] = test: Neurotoxicity in CF-1 albino mouse at 300 mg/kg, ip after 4 hrs by rotarod test; assay type: toxicity, organism-based; parameters: dose 300 mg/kg, route intraperitoneal; conditions: in vivo
Mus musculus [14] = test: Neurotoxicity in CF-1 albino mouse at 300 mg/kg, ip after 0.5 hrs by rotarod test; assay type: toxicity, organism-based; parameters: dose 300 mg/kg, route intraperitoneal; conditions: in vivo
Mus musculus [15] = test: Anticonvulsant activity in CF-1 albino mouse assessed as protection against maximal electroshock-induced seizures at 300 mg/kg, ip after 4 hrs; assay type: functional, organism-based; parameters: dose 300 mg/kg
Rattus norvegicus [16] = species on record: Rattus norvegicus; test: Protective index, ratio of TD50 for Sprague-Dawley albino rat by rotarod test to ED50 for Sprague-Dawley albino rat; assay type: functional
[17] = Neurotoxicity in po dosed Sprague-Dawley albino rat at 30 mg/kg, po after 0.25 to 4 hrs by rotarod test; assay type: toxicity, organism-based; parameters: dose 30 mg/kg, route oral; conditions: in vivo
Rattus norvegicus [18] = test: Anticonvulsant activity in po dosed Sprague-Dawley albino rat assessed as protection against maximal electroshock-induced seizures after 0.25 to 4 hrs; assay type: functional
Mus musculus [19] = test: Anticonvulsant activity in ip dosed CF-1 albino mouse assessed as protection against maximal electroshock-induced seizures after 0.5 hrs; assay type: functional
Rattus norvegicus [20] = test: Neurotoxicity in Sprague-Dawley albino rat assessed as motor impairment at 30 mg/kg, po; assay type: toxicity, organism-based; parameters: dose 30 mg/kg, route oral; conditions: in vivo
Rattus norvegicus [21] = test: Anticonvulsant activity in Sprague-Dawley albino rat assessed as protection against maximal electroshock-induced seizures at 30 mg/kg, po after 4 hrs; assay type: functional
Rattus norvegicus [22] = test: Anticonvulsant activity in Sprague-Dawley albino rat assessed as protection against maximal electroshock-induced seizures at 30 mg/kg, po after 2 hrs; assay type: functional
Rattus norvegicus [23] = test: Anticonvulsant activity in Sprague-Dawley albino rat assessed as protection against maximal electroshock-induced seizures at 30 mg/kg, po after 1 hr; assay type: functional
Rattus norvegicus [24] = test: Anticonvulsant activity in Sprague-Dawley albino rat assessed as protection against maximal electroshock-induced seizures at 30 mg/kg, po after 0.5 hrs; assay type: functional
Rattus norvegicus [25] = test: Anticonvulsant activity in Sprague-Dawley albino rat assessed as protection against maximal electroshock-induced seizures at 30 mg/kg, po after 0.25 hrs; assay type: functional
Rattus norvegicus [26] = test: Anticonvulsant activity in Sprague-Dawley albino rat assessed as time of peak effect for protection against maximal electroshock-induced seizures at 30 mg/kg, po; assay type: functional
Mus musculus [27] = test: Anticonvulsant activity in CF-1 albino mouse assessed as time of peak effect for protection against maximal electroshock-induced seizures at 30 to 300 mg/kg, ip; assay type: functional; conditions: dose mg/kg 30-300; route intraperitoneal

Row | Compound | TD50 at 4 h [1] | Activity (Vibrio harveyi [6]) | Activity (Vibrio harveyi [7]) | Activity (Vibrio harveyi [8]) | Activity (Vibrio harveyi [9]) | TD50 at 0.5 h [10] | MED50 (Mus musculus [11]) | Activity (Mus musculus [12]) | Activity (Mus musculus [13]) | Activity (Mus musculus [15]) | further results
1 | CC1(c2ccccc2)CC(=O)N(CN2CCN(c3ccccc3F)CC2)C1=O (configuration not stated) | 300 mg/kg | Non-toxic | Non-toxic | Non-toxic | Non-toxic | 300 mg/kg | 100 mg/kg | inactive | – | – | inhibition (INH) (Vibrio harveyi [2]): 35%; inhibition (INH) (Vibrio harveyi [3]): 57%; inhibition (INH) (Vibrio harveyi [4]): 0%; inhibition (INH) (Vibrio harveyi [5]): 25%
2 | CC1(C)CC(=O)N(CN2CCN(c3ccccc3F)CC2)C1=O | – | – | – | – | – | 300 mg/kg | 100 mg/kg | inactive | Non-toxic | – | –
3 | CC1(c2ccccc2)CC(=O)N(CN2CCN(c3cccc(C(F)(F)F)c3)CC2)C1=O (configuration not stated) | 300 mg/kg | – | – | – | – | – | 100 mg/kg | inactive | – | – | Activity (Mus musculus [14]): Non-toxic
4 | CC1(C)CC(=O)N(CN2CCN(c3ccc(Cl)cc3)CC2)C1=O | – | – | – | – | – | 300 mg/kg | – | inactive | Non-toxic | inactive | –
5 | CCC1(C)CC(=O)NC1=O (configuration not stated) [ETHOSUXIMIDE] | – | Non-toxic | Non-toxic | Non-toxic | Non-toxic | – | – | – | – | – | inhibition (INH) (Vibrio harveyi [2]): 43%; inhibition (INH) (Vibrio harveyi [3]): 43%; inhibition (INH) (Vibrio harveyi [4]): 0%; inhibition (INH) (Vibrio harveyi [5]): 30%
6 | O=C1CC2(CCc3ccccc3C2)C(=O)N1CN1CCN(c2cccc(Cl)c2)CC1 (configuration not stated) | – | – | – | – | – | – | – | – | – | – | Ratio TD50/ED50 (Rattus norvegicus [16]): >25.69; TD50 [17]: > 400 mg/kg; ED50 (Rattus norvegicus [18]): 15.6 mg/kg
7 | COc1cccc(N2CCN(CN3C(=O)CC(C)(c4ccccc4)C3=O)CC2)c1 (configuration not stated) | – | Toxic | Toxic | Non-toxic | Non-toxic | – | 100 mg/kg | – | Non-toxic | – | Activity (Mus musculus [14]): Non-toxic; MED50 (Mus musculus [19]): 100 mg/kg
8 | COc1cccc(N2CCN(CN3C(=O)CC(C)(C)C3=O)CC2)c1 | – | – | – | – | – | 300 mg/kg | 100 mg/kg | inactive | Non-toxic | – | Activity (Rattus norvegicus [20]): Non-toxic; Activity (Rattus norvegicus [21]): inactive; Activity (Rattus norvegicus [22]): inactive; Activity (Rattus norvegicus [23]): inactive; Activity (Rattus norvegicus [24]): 25%; Activity (Rattus norvegicus [25]): inactive
9 | CC1(C)CC(=O)N(CN2CCN(c3cccc(C(F)(F)F)c3)CC2)C1=O | 300 mg/kg | – | – | – | – | 300 mg/kg | 30 mg/kg | inactive | – | – | Activity (Rattus norvegicus [20]): Non-toxic; Activity (Rattus norvegicus [21]): Active; Activity (Rattus norvegicus [22]): 50%; Activity (Rattus norvegicus [23]): 25%; Activity (Rattus norvegicus [24]): 75%; Activity (Rattus norvegicus [25]): 25%
10 | CC1(C)CC(=O)N(CN2CCN(c3ccccc3)CC2)C1=O | 300 mg/kg | – | – | – | – | 300 mg/kg | 100 mg/kg | inactive | – | – | –
11 | CC1(C)CC(=O)N(CN2CCN(c3cccc(Cl)c3)CC2)C1=O | 300 mg/kg | – | – | – | – | 300 mg/kg | – | inactive | – | inactive | –
12 | Cc1ccccc1N1CCN(CN2C(=O)CC(C)(C)C2=O)CC1 | 300 mg/kg | – | – | – | – | 300 mg/kg | – | inactive | – | inactive | –
13 | Cc1cccc(N2CCN(CN3C(=O)CC(C)(c4ccccc4)C3=O)CC2)c1 (configuration not stated) | 300 mg/kg | Toxic | Toxic | Non-toxic | Non-toxic | 300 mg/kg | 100 mg/kg | – | – | – | Activity (Rattus norvegicus [20]): Non-toxic; Activity (Rattus norvegicus [21]): 50%; Activity (Rattus norvegicus [22]): 50%; Activity (Rattus norvegicus [23]): 50%; Activity (Rattus norvegicus [24]): inactive; Activity (Rattus norvegicus [25]): inactive; MED50 (Mus musculus [19]): 100 mg/kg
14 | O=C1CC(c2ccccc2Br)C(=O)N1CN1CCN(c2ccc(F)cc2)CC1 (configuration not stated) | – | – | – | – | – | – | – | – | – | – | TD50 [17]: 62.4 mg/kg; ED50 (Rattus norvegicus [18]): 7.4 mg/kg
15 | CC1(c2ccccc2)CC(=O)N(CN2CCN(c3ccc(Cl)cc3)CC2)C1=O (configuration not stated) | – | Non-toxic | Non-toxic | Non-toxic | Non-toxic | – | 100 mg/kg | inactive | Non-toxic | – | inhibition (INH) (Vibrio harveyi [2]): 43%; inhibition (INH) (Vibrio harveyi [3]): 43%; inhibition (INH) (Vibrio harveyi [4]): 0%; inhibition (INH) (Vibrio harveyi [5]): 6%; Activity (Rattus norvegicus [20]): Non-toxic; Activity (Rattus norvegicus [21]): 75%; Activity (Rattus norvegicus [22]): 75%; Activity (Rattus norvegicus [23]): 75%; Activity (Rattus norvegicus [24]): inactive; Activity (Rattus norvegicus [25]): inactive; Activity (Mus musculus [14]): Non-toxic
16 | Cc1ccccc1N1CCN(CN2C(=O)CC(C)(c3ccccc3)C2=O)CC1 (configuration not stated) | – | Toxic | Toxic | Non-toxic | Non-toxic | 300 mg/kg | – | inactive | Non-toxic | inactive | –
17 | CC1(c2ccccc2)CC(=O)N(CN2CCN(c3ccccc3)CC2)C1=O (configuration not stated) | – | Non-toxic | Non-toxic | Non-toxic | Non-toxic | – | 100 mg/kg | inactive | Non-toxic | – | inhibition (INH) (Vibrio harveyi [2]): 40%; inhibition (INH) (Vibrio harveyi [3]): 38%; inhibition (INH) (Vibrio harveyi [4]): 0%; inhibition (INH) (Vibrio harveyi [5]): 28%; Activity (Mus musculus [14]): Non-toxic
18 | CC1(C)CC(=O)N(CN2CCN(c3ccc(F)cc3)CC2)C1=O | – | – | – | – | – | 300 mg/kg | – | inactive | Non-toxic | inactive | –
19 | Cc1cccc(N2CCN(CN3C(=O)CC(C)(C)C3=O)CC2)c1 | – | – | – | – | – | 300 mg/kg | – | inactive | Non-toxic | inactive | –
20 | COc1ccccc1N1CCN(CN2C(=O)CC(C)(c3ccccc3)C2=O)CC1 (configuration not stated) | 300 mg/kg | Toxic | Toxic | Non-toxic | Non-toxic | 300 mg/kg | 100 mg/kg | – | – | – | Activity (Rattus norvegicus [20]): Non-toxic; Activity (Rattus norvegicus [21]): 50%; Activity (Rattus norvegicus [22]): 50%; Activity (Rattus norvegicus [23]): 50%; Activity (Rattus norvegicus [24]): inactive; Activity (Rattus norvegicus [25]): inactive; MED50 (Mus musculus [19]): 100 mg/kg
21 | COc1ccccc1N1CCN(CN2C(=O)CC(C)(C)C2=O)CC1 | – | – | – | – | – | 300 mg/kg | – | inactive | Non-toxic | inactive | –
22 | O=C1NC(=O)C(c2ccccc2)(c2ccccc2)N1 [PHENYTOIN] | – | – | – | – | – | – | – | – | – | – | Ratio TD50/ED50 (Rattus norvegicus [16]): >3.6; TD50 [17]: > 100 mg/kg; Time (Rattus norvegicus [26]): 2 h; Time (Mus musculus [27]): 1 h; Activity (Rattus norvegicus [21]): 75%; Activity (Rattus norvegicus [22]): 75%; Activity (Rattus norvegicus [23]): 75%; Activity (Rattus norvegicus [24]): Active; Activity (Rattus norvegicus [25]): 25%
23 | CC1(C)CC(=O)N(CN2CCN(c3ccc(Cl)c(Cl)c3)CC2)C1=O | – | – | – | – | – | – | – | inactive | Non-toxic | inactive | Activity (Mus musculus [14]): Non-toxic
24 | CC1(C)CC(=O)N(CN2CCN(c3ccccc3Cl)CC2)C1=O | – | – | – | – | – | 100 mg/kg | – | inactive | Non-toxic | inactive | –
25 | O=C1CC(c2ccccc2)(c2ccccc2)C(=O)N1CN1CCN(c2cccc(C(F)(F)F)c2)CC1 | – | – | – | – | – | – | – | – | – | – | Ratio TD50/ED50 (Rattus norvegicus [16]): <13.2; TD50 [17]: < 400 mg/kg; ED50 (Rattus norvegicus [18]): 30 mg/kg
26 | CC1(c2ccccc2)CC(=O)N(CN2CCN(c3ccccc3Cl)CC2)C1=O (configuration not stated) | – | Non-toxic | Non-toxic | Non-toxic | Non-toxic | – | – | inactive | Non-toxic | inactive | inhibition (INH) (Vibrio harveyi [2]): 49%; inhibition (INH) (Vibrio harveyi [3]): 47%; inhibition (INH) (Vibrio harveyi [4]): 0%; inhibition (INH) (Vibrio harveyi [5]): 3%; Activity (Mus musculus [14]): Non-toxic

Source: ChEMBL document CHEMBL2417397, “Synthesis and biological properties of new N-Mannich bases derived from 3-methyl-3-phenyl- and 3,3-dimethyl-succinimides. Part V” (Eur J Med Chem, 2013)
